Here are results for eight molecules from US9340590B2 (priority 2011, dated 2016).

SMILES strings stand for the structures. Positions of bridges follow the written chain, without caps; N, C: chain ends. Non-standard residues stand in square brackets, D forms with d. Residues, ends and D or L forms follow the SMILES beside them. *: point of attachment. Phe(4-COOH) = N[C@@H](Cc1ccc(C(=O)O)cc1)C(=O)O; 2Nal = N[C@@H](Cc1ccc2ccccc2c1)C(=O)O; hCit = NC(=O)NCCCC[C@H](N)C(=O)O; Pent4ynoyl = C#CCCC(=O)*; Nva = CCC[C@H](N)C(=O)O; Abu = CC[C@H](N)C(=O)O Some results are limits rather than exact numbers.

One experiment has as its target hNav1.5 (Homo sapiens, UniProt Q14524). Put plainly: cell-based.
The target of a further experiment is hNav1.7 (Homo sapiens, UniProt Q15858). Put plainly: cell-based. To be noted: Nav1.7 Use IC50.
Chain of hNav1.7 (Q15858 whole entry, looked up): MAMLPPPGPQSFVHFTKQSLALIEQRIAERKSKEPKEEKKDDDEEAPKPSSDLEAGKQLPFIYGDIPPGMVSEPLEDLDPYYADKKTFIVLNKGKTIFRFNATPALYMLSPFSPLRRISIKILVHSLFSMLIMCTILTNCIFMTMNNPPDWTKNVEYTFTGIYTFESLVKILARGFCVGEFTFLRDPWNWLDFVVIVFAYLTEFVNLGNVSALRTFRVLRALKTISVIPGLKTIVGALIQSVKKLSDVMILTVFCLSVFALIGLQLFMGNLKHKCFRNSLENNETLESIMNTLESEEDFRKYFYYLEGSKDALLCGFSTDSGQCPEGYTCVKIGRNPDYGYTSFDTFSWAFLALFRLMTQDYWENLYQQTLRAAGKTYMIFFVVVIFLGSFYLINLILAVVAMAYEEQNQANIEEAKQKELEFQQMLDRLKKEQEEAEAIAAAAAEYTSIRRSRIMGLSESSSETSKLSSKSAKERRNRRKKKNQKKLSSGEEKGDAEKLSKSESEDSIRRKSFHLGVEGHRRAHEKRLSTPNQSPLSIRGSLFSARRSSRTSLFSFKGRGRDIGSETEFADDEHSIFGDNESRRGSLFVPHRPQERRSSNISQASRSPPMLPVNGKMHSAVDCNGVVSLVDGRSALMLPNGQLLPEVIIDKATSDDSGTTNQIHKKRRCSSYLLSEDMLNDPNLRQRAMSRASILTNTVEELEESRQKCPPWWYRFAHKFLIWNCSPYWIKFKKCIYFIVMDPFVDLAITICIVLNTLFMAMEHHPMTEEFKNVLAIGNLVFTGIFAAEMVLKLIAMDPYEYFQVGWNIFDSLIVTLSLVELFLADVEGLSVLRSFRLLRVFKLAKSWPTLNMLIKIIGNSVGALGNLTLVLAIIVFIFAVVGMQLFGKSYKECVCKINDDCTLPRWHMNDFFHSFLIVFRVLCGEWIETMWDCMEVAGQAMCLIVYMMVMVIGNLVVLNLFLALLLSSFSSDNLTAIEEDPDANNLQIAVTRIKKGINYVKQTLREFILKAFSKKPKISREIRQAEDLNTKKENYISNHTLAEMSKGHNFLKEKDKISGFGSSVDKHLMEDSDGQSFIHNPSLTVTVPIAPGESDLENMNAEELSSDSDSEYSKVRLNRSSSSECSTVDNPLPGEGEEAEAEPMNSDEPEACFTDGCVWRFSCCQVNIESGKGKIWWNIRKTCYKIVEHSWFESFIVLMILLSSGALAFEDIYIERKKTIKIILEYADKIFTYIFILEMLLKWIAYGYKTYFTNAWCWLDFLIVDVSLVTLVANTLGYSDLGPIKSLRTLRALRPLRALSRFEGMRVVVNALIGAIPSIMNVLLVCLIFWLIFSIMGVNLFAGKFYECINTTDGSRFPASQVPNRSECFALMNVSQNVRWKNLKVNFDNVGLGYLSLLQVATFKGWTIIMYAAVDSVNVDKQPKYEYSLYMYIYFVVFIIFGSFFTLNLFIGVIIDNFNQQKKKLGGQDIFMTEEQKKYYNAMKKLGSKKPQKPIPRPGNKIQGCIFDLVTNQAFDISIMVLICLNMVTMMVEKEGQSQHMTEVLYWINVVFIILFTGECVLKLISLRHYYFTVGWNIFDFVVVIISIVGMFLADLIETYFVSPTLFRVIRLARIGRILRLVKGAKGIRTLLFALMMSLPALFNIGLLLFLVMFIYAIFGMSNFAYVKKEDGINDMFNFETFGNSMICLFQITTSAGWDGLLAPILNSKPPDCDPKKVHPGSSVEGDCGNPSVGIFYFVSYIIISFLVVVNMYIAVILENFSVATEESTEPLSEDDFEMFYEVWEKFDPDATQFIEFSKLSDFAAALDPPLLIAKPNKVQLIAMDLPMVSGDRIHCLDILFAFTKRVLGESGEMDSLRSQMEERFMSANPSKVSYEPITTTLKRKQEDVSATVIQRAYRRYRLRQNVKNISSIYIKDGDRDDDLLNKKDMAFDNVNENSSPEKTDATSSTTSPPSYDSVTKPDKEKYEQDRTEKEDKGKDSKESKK

Chain of hNav1.5 (Q14524 whole entry, looked up): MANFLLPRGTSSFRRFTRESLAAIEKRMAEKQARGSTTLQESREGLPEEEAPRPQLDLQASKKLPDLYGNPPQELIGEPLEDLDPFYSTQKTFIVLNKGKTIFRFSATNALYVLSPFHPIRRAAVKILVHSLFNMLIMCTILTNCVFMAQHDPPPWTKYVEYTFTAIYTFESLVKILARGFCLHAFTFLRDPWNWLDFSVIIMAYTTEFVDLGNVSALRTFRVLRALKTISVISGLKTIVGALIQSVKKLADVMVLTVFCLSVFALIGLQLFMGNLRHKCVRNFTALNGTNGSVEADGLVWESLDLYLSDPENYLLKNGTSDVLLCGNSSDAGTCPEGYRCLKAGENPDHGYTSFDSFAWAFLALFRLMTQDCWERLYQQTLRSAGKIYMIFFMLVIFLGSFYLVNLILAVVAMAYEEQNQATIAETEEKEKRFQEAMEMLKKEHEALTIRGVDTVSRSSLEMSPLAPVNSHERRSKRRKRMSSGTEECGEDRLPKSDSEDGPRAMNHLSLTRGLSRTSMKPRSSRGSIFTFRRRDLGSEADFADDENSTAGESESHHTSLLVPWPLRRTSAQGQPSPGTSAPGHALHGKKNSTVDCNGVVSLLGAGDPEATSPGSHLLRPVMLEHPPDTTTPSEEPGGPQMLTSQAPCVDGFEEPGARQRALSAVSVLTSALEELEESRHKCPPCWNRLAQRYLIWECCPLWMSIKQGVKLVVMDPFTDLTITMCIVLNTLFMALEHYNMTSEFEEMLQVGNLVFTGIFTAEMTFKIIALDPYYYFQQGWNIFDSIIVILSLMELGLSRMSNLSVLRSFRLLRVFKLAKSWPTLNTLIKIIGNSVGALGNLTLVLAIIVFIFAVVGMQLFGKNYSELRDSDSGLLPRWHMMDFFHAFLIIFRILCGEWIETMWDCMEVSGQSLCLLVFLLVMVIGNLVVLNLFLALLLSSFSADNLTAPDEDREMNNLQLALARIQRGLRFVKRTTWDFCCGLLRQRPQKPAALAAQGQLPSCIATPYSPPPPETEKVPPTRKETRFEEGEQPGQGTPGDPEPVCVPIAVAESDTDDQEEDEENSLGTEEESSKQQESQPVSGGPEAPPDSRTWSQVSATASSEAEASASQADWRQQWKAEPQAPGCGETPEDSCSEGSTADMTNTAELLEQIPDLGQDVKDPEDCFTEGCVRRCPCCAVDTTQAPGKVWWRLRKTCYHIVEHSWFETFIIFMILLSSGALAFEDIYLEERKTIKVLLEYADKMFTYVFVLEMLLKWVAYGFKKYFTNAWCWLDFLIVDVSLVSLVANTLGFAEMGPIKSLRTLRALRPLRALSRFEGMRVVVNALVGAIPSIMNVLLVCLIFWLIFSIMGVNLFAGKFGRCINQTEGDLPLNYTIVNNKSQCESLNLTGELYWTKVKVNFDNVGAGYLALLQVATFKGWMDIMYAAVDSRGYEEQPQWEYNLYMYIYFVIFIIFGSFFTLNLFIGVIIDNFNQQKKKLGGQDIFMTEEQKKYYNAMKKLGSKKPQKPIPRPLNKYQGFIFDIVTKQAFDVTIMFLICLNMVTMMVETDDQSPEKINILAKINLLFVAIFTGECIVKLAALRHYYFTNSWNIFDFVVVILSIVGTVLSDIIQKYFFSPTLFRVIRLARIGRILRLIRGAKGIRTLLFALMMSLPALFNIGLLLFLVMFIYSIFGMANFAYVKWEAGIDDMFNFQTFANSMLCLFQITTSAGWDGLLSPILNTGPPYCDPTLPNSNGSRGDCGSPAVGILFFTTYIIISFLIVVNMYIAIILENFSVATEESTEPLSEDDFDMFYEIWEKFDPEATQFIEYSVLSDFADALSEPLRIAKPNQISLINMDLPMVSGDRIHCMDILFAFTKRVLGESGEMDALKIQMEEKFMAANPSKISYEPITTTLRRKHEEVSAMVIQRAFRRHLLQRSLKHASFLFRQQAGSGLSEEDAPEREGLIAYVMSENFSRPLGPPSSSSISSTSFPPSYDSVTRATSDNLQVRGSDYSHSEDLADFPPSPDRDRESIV

`CC[C@H](C)[C@@H]1NC(=O)[C@@H]2CSSC[C@@H]3NC(=O)[C@H](C)NC(=O)[C@H](CC(C)C)NC(=O)[C@H](CC(N)=O)NC(=O)[C@@H]4CCCN4C(=O)[C@H](CCCNC(=N)N)NC(=O)[C@H](CSSC[C@H](NC(=O)[C@@H](N)CC(=O)O)C(=O)N[C@@H](CC(C)C)C(=O)NCC(=O)N[C@@H](Cc4ccccc4)C(=O)N[C@@H](CCSC)C(=O)N[C@@H](CCCNC(=N)N)C(=O)N[C@@H](CCCCN)C(=O)N2)NC(=O)[C@H](CSSC[C@@H](C(=O)N[C@@H](CCCCN)C(=O)N[C@@H](Cc2ccc(O)cc2)C(=O)N[C@H](C(=O)N[C@@H](Cc2ccccc2)C(N)=O)C(C)C)NC(=O)[C@H](Cc2c[nH]c4ccccc24)NC(=O)[C@H](CCCCN)NC(=O)[C@H](Cc2cnc[nH]2)NC(=O)[C@H]([C@@H](C)O)NC(=O)[C@H](CCCNC(=N)N)NC(=O)[C@H](CO)NC3=O)NC(=O)[C@H](CCCCN)NC(=O)[C@H](CC(=O)O)NC(=O)[C@H](CC(N)=O)NC(=O)[C@H](CC(=O)O)NC(=O)[C@@H]2CCCN2C1=O` [[Ala22]GpTx-1(1-34)] (H-DCLGFMRKCIPDNDKCCRPNLACSRTHKWCKYVF-NH2; disulfide 2-17, 9-23, 16-30): the values for the IC50 against hNav1.5 and against hNav1.7 were 6.2 µM and 6 nM, respectively.
The matching figures for `CC[C@H](C)[C@@H]1NC(=O)[C@@H]2CSSC[C@@H]3NC(=O)[C@H](C(C)C)NC(=O)[C@H](CC(C)C)NC(=O)[C@H](CC(N)=O)NC(=O)[C@@H]4CCCN4C(=O)[C@H](CCCNC(=N)N)NC(=O)[C@H](CSSC[C@H](NC(=O)[C@@H](N)CC(=O)O)C(=O)N[C@@H](CC(C)C)C(=O)NCC(=O)N[C@@H](Cc4ccccc4)C(=O)N[C@@H](CCSC)C(=O)N[C@@H](CCCNC(=N)N)C(=O)N[C@@H](CCCCN)C(=O)N2)NC(=O)[C@H](CSSC[C@@H](C(=O)N[C@@H](CCCCN)C(=O)N[C@@H](Cc2ccc(O)cc2)C(=O)N[C@@H](Cc2ccc(C(=O)O)cc2)C(=O)N[C@@H](Cc2ccccc2)C(N)=O)NC(=O)[C@H](Cc2c[nH]c4ccccc24)NC(=O)[C@H](CCCCN)NC(=O)[C@H](Cc2c[nH]cn2)NC(=O)[C@H]([C@@H](C)O)NC(=O)[C@H](CCCNC(=N)N)NC(=O)[C@H](CO)NC3=O)NC(=O)[C@H](CCCCN)NC(=O)[C@H](CC(=O)O)NC(=O)[C@H](CC(N)=O)NC(=O)[C@H](CC(=O)O)NC(=O)[C@@H]2CCCN2C1=O` [[4CO2-F33]GpTx-1(1-34)] (H-DCLGFMRKCIPDNDKCCRPNLVCSRTHKWCKY[Phe(4-COOH)]F-NH2; disulfide 2-17, 9-23, 16-30): greater than 10 µM and 3 nM.
The like results for `CC[C@H](C)[C@@H]1NC(=O)[C@@H]2CSSC[C@@H]3NC(=O)[C@H](C(C)C)NC(=O)[C@H](CC(C)C)NC(=O)[C@H](CC(N)=O)NC(=O)[C@@H]4CCCN4C(=O)[C@H](CCCNC(=N)N)NC(=O)[C@H](CSSC[C@H](NC(=O)[C@@H](N)CC(=O)O)C(=O)N[C@@H](CC(C)C)C(=O)NCC(=O)N[C@@H](C)C(=O)N[C@@H](CCSC)C(=O)N[C@@H](CCCNC(=N)N)C(=O)N[C@@H](CCCCN)C(=O)N2)NC(=O)[C@H](CSSC[C@@H](C(=O)N[C@@H](CCCCN)C(=O)N[C@@H](Cc2ccc(O)cc2)C(=O)N[C@H](C(=O)N[C@@H](Cc2ccccc2)C(N)=O)C(C)C)NC(=O)[C@H](Cc2c[nH]c4ccccc24)NC(=O)[C@H](CCCCNC(N)=O)NC(=O)[C@H](Cc2c[nH]cn2)NC(=O)[C@H]([C@@H](C)O)NC(=O)[C@H](CCCNC(=N)N)NC(=O)[C@H](CO)NC3=O)NC(=O)[C@H](CCCCN)NC(=O)[C@H](CC(=O)O)NC(=O)[C@H](CC(N)=O)NC(=O)[C@H](CC(=O)O)NC(=O)[C@@H]2CCCN2C1=O` [[Ala5;HCit28]GpTx-1(1-34)] (H-DCLGAMRKCIPDNDKCCRPNLVCSRTH[hCit]WCKYVF-NH2; disulfide 2-17, 9-23, 16-30) were, in that order, greater than 10 µM and 25 nM.
The like results for `C#CCCC(=O)NCCCC[C@@H]1NC(=O)[C@H](CC(=O)O)NC(=O)[C@@H]2CCCN2C(=O)[C@H]([C@@H](C)CC)NC(=O)[C@@H]2CSSC[C@@H]3NC(=O)[C@H](C(C)C)NC(=O)[C@H](CC(C)C)NC(=O)[C@H](CC(N)=O)NC(=O)[C@@H]4CCCN4C(=O)[C@H](CCCNC(=N)N)NC(=O)[C@H](CSSC[C@H](NC(=O)[C@@H](N)CC(=O)O)C(=O)N[C@@H](CC(C)C)C(=O)NCC(=O)N[C@@H](CC)C(=O)N[C@@H](CC(C)C)C(=O)N[C@@H](CCCNC(=N)N)C(=O)N[C@@H](CCCCN)C(=O)N2)NC(=O)[C@H](CSSC[C@@H](C(=O)N[C@@H](CCCCN)C(=O)N[C@@H](Cc2ccc(O)cc2)C(=O)N[C@H](C(=O)N[C@@H](Cc2ccccc2)C(N)=O)C(C)C)NC(=O)[C@H](Cc2c[nH]c4ccccc24)NC(=O)[C@H](CCCNC(=N)N)NC(=O)[C@H](Cc2c[nH]cn2)NC(=O)[C@H]([C@@H](C)O)NC(=O)[C@H](CCCNC(=N)N)NC(=O)[C@H](CO)NC3=O)NC(=O)[C@H](CCCCN)NC(=O)[C@H](CC(=O)O)NC1=O` (H-DCLG[Abu]LRKCIPDK(Pent4ynoyl)DKCCRPNLVCSRTHRWCKYVF-NH2; disulfide 2-17, 9-23, 16-30) were, in that order, greater than 10 µM and 2 nM.
For the molecule `CC[C@H](C)[C@@H]1NC(=O)[C@@H]2CSSC[C@@H]3NC(=O)[C@H](C(C)C)NC(=O)[C@H](CC(C)C)NC(=O)[C@H](CC(N)=O)NC(=O)[C@@H]4CCCN4C(=O)[C@H](CCCNC(=N)N)NC(=O)[C@H](CSSC[C@H](NC(=O)[C@H](CC(=O)O)NC(=O)[C@H](CO)NC(=O)CN)C(=O)N[C@@H](CC(C)C)C(=O)NCC(=O)N[C@@H](C)C(=O)N[C@@H](Cc4ccccc4)C(=O)N[C@@H](CCCNC(=N)N)C(=O)N[C@@H](CCCCN)C(=O)N2)NC(=O)[C@H](CSSC[C@@H](C(=O)N[C@@H](CCCCN)C(=O)N[C@@H](Cc2ccc(O)cc2)C(=O)N[C@H](C(=O)N[C@@H](Cc2ccccc2)C(=O)N[C@@H](Cc2ccccc2)C(=O)O)C(C)C)NC(=O)[C@H](Cc2c[nH]c4ccccc24)NC(=O)[C@H](CCCNC(=N)N)NC(=O)[C@H](Cc2c[nH]cn2)NC(=O)[C@H]([C@@H](C)O)NC(=O)[C@H](CCCNC(=N)N)NC(=O)[C@H](CO)NC3=O)NC(=O)[C@H](CCCCN)NC(=O)[C@H](CC(=O)O)NC(=O)[C@H](CC(N)=O)NC(=O)[C@H](CC(=O)O)NC(=O)[C@@H]2CCCN2C1=O` (H-GSDCLGAFRKCIPDNDKCCRPNLVCSRTHRWCKYVFF-OH; disulfide 4-19, 11-25, 18-32), the results for the IC50 on hNav1.5 and at hNav1.7 were greater than 10 µM and 47 nM, respectively.
The like results for `CCC[C@@H]1NC(=O)CNC(=O)[C@H](CC(C)C)NC(=O)[C@@H](NC(=O)[C@@H](N)CC(=O)O)CSSC[C@@H]2NC(=O)[C@@H]3CSSC[C@@H](C(=O)N[C@@H](CCCCN)C(=O)N[C@@H](Cc4ccc(O)cc4)C(=O)N[C@H](C(=O)N[C@@H](Cc4ccccc4)C(N)=O)C(C)C)NC(=O)[C@H](Cc4c[nH]c5ccccc45)NC(=O)[C@H](CCC(=O)O)NC(=O)[C@H](Cc4c[nH]cn4)NC(=O)[C@H]([C@@H](C)O)NC(=O)[C@H](CCCNC(=N)N)NC(=O)[C@H](CO)NC(=O)[C@H](CSSC[C@H](NC(=O)[C@H](CCCCN)NC(=O)[C@H](CCCNC(=N)N)NC(=O)[C@H](CCSC)NC1=O)C(=O)N[C@@H]([C@@H](C)CC)C(=O)N1CCC[C@H]1C(=O)N[C@@H](CC(=O)O)C(=O)N[C@@H](CC(N)=O)C(=O)N[C@@H](CC(=O)O)C(=O)N[C@@H](CCCCN)C(=O)N3)NC(=O)[C@H](C(C)C)NC(=O)[C@H](CC(C)C)NC(=O)[C@H](CC(N)=O)NC(=O)[C@@H]1CCCN1C(=O)[C@H](CCCNC(=N)N)NC2=O` [[Nva5;Glu28]GpTx-1(1-34)] (H-DCLG[Nva]MRKCIPDNDKCCRPNLVCSRTHEWCKYVF-NH2; disulfide 2-17, 9-23, 16-30) were, in that order, greater than 10 µM and 56 nM.
In the case of `CC[C@H](C)[C@@H]1NC(=O)[C@@H]2CSSC[C@@H]3NC(=O)[C@H](C(C)C)NC(=O)[C@H](CC(C)C)NC(=O)[C@H](CC(N)=O)NC(=O)[C@@H]4CCCN4C(=O)[C@H](CCCNC(=N)N)NC(=O)[C@H](CSSC[C@H](NC(=O)[C@@H](N)CC(=O)O)C(=O)N[C@@H](CC(C)C)C(=O)NCC(=O)N[C@@H](C)C(=O)N[C@@H](CCSC)C(=O)N[C@@H](CCCNC(=N)N)C(=O)N[C@@H](CCCCN)C(=O)N2)NC(=O)[C@H](CSSC[C@@H](C(=O)N[C@@H](CCCCN)C(=O)N[C@@H](Cc2ccc(O)cc2)C(=O)N[C@H](C(=O)N[C@@H](Cc2ccccc2)C(N)=O)C(C)C)NC(=O)[C@H](Cc2c[nH]c4ccccc24)NC(=O)[C@H](CCC(=O)O)NC(=O)[C@H](Cc2c[nH]cn2)NC(=O)[C@H]([C@@H](C)O)NC(=O)[C@H](CCCNC(=N)N)NC(=O)[C@H](CO)NC3=O)NC(=O)[C@H](CCCCN)NC(=O)[C@H](CC(=O)O)NC(=O)[C@H](CC(N)=O)NC(=O)[C@H](CC(=O)O)NC(=O)[C@@H]2CCCN2C1=O` [[Ala5;Glu28]GpTx-1(1-34)], the IC50 (in general, the concentration that inhibits the measured activity by half) against hNav1.5 was greater than 10 µM; at hNav1.7, 614 nM.
The like results for `CC[C@H](C)[C@@H]1NC(=O)[C@@H]2CSSC[C@@H]3NC(=O)[C@H](C(C)C)NC(=O)[C@H](CC(C)C)NC(=O)[C@H](CC(N)=O)NC(=O)[C@@H]4CCCN4C(=O)[C@H](CCCNC(=N)N)NC(=O)[C@H](CSSC[C@H](NC(=O)[C@@H](N)CC(=O)O)C(=O)N[C@@H](CC(C)C)C(=O)NCC(=O)N[C@@H](Cc4ccccc4)C(=O)N[C@@H](CCSC)C(=O)N[C@@H](CCCNC(=N)N)C(=O)N[C@@H](CCCCN)C(=O)N2)NC(=O)[C@H](CSSC[C@@H](C(=O)N[C@@H](CCCCN)C(=O)N[C@@H](Cc2ccc(O)cc2)C(=O)N[C@H](C(=O)N[C@@H](Cc2ccccc2)C(N)=O)C(C)C)NC(=O)[C@H](Cc2ccc4ccccc4c2)NC(=O)[C@H](CCCCN)NC(=O)[C@H](Cc2c[nH]cn2)NC(=O)[C@H]([C@@H](C)O)NC(=O)[C@H](CCCNC(=N)N)NC(=O)[C@H](CO)NC3=O)NC(=O)[C@H](CCCCN)NC(=O)[C@H](CC(=O)O)NC(=O)[C@H](CC(N)=O)NC(=O)[C@H](CC(=O)O)NC(=O)[C@@H]2CCCN2C1=O` [[2-Nal29]GpTx-1(1-34)] (H-DCLGFMRKCIPDNDKCCRPNLVCSRTHK[2Nal]CKYVF-NH2; disulfide 2-17, 9-23, 16-30) were, in that order, greater than 10 µM and 66 nM.
